Here are results for two molecules from patent US9247759B2, “Identification of human T2R receptors that respond to bitter compounds that elicit the bitter taste in compositions, and the use thereof in assays to identify compounds that inhibit (block) bitter taste in compositions and use thereof” (SENOMYX, INC., priority 2007, dated 2016).

The target in test [1] is hT2R3 (Homo sapiens (Human), UniProt Q9NYW6). Kind of test: hT2R panel inhibition, transient HEK293 G16g44, agonist Chloroquine pH6.5 50 μM. Conditions: HEK293, compound at 25 μM; receptor activated to EC80 with the corresponding agonist; read-out: screening result against bitter receptor 3. Type of test: cell-based. In outline: (§1)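 Panel: 22 human T2Rs, individually transient in stable G16g44 cells. Stim: EC80 agonist. Output: % reduction of activity by test cpd.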

Test [2] deals with hT2R13 (Homo sapiens (Human), UniProt Q9NYV9). Kind of test: hT2R panel inhibition, transient HEK293 G16g44, agonist Oxyphenonium 1 mM. Type of test: cell-based. The settings on record: HEK293, compound at 25 μM; receptor activated to EC80 with the corresponding agonist; read-out: screening result against bitter receptor 13. How it is done:
Specifically, in order to evaluate the inhibitory selectivity of the Compound C compound, this compound was tested against 22 human T2Rs which were deorphaned by Senomyx. These receptors and the bitter ligands that activate these human T2Rs are reported in earlier patent applications which are incorporated by reference herein. These 22 human T2Rs are hT2R1, 3, 4, 5, 7, 8, 9, 10, 13, 14, 16, 44, 51, 54, 55, 61, 63, 64, 65, 67, 71 and 75. The amino acid and nucleic acid sequences of all of these T2Rs may be found in these earlier patent applications. These human T2Rs were each individually transiently transfected into HEK293 cells that stably express the promiscuous G protein G16g44 and functional assays were effected using these receptors as disclosed in these same patent applications. […] The ligands were used at EC80 concentration levels. The list of bitter ligands utilized and the tested ligand concentrations are contained in Table 5 of this example.
Relating to the foregoing, FIG. 5 contains experimental results wherein Compound C was tested with different agonist compounds. The inhibition activity is represented by the reduction of receptor activity in the presence of Compound C. […] These 13 hT2Rs are hT2R3, 7, 10, 14, 16, 44, 51, 55, 61, 63, 64, 65, and 71.

Test [3] deals with hT2R44. Nature of the test: hT2R panel inhibition, transient HEK293 G16g44, agonist Denatonium 0.5 μM. Type of test: cell-based, human. The settings on record: compound at 25 μM; receptor activated to EC80 with the corresponding agonist. In outline: as §1
In test [4] the test system is hT2R63. Nature of the test: hT2R panel inhibition, transient HEK293 G16g44, agonist Caffeine 1 mM or Andrographolide 100 μM. It is filed as cell-based, human. Conditions: compound at 25 μM; receptor activated to EC80 with the corresponding agonist. In outline:
as §1

The target of test [5] is hT2R5 (Homo sapiens (Human), UniProt Q9NYW4). Kind of test: hT2R panel inhibition, transient HEK293 G16g44, agonist Picoline 10 mM. Conditions: HEK293, compound at 25 μM; receptor activated to EC80 with the corresponding agonist; read-out: screening result against bitter receptor 5. Type of test: cell-based. A digest of the protocol:
as §1

Test [6] addresses hT2R61 (Homo sapiens (Human), UniProt P59537). Nature of the test: hT2R panel inhibition, transient HEK293 G16g44, agonist Aristolochic Acid 25 nM. Type of test: cell-based. The settings on record: HEK293, compound at 25 μM; receptor activated to EC80 with the corresponding agonist; read-out: screening result against bitter receptor 61. In outline: as §1
The subject of test [7] is hT2R65. Kind of test: hT2R panel inhibition, transient HEK293 G16g44, agonist Oleuropein 1 mM. Type of test: cell-based, human. The settings on record: compound at 25 μM; receptor activated to EC80 with the corresponding agonist. In outline:
as §1

In test [8] the target is T1, hT2R14 (Homo sapiens (Human), UniProt Q9NYV8). Nature of the test: hT2R14 antagonist high-throughput FLIPR assay, stable cell line with G16g44, agonist aristolochic acid. It is filed as cell-based. Conditions: read-out: IC50 on hT2R14 bitter receptor. A digest of the protocol:
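Compounds were co-applied with 3 μM aristolochic acid, a dose set to reach 70-80% of maximal hT2R14 activation. Read-out was FLIPR fluorescence in a stable HEK293 line co-expressing hT2R14 and G16g44.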

For test [9], the target named is hT2R75 (Homo sapiens (Human), UniProt P59540). Kind of test: hT2R panel inhibition, transient HEK293 G16g44, agonist Strychnine 1 μM. Type of test: cell-based. Conditions: HEK293, read-out: screening result against bitter receptor 75, compound at 25 μM; receptor activated to EC80 with the corresponding agonist.
In test [10] the target is hT2R64 (Homo sapiens (Human), UniProt P59538). Nature of the test: hT2R panel inhibition, transient HEK293 G16g44, agonist Aristolochic Acid 1 μM. Conditions: HEK293, compound at 25 μM; receptor activated to EC80 with the corresponding agonist; read-out: screening result against bitter receptor 64. Type of test: cell-based. In outline: as §1
In test [11] the target is hT2R7 (Homo sapiens (Human), UniProt Q9NYW3). Kind of test: hT2R panel inhibition, transient HEK293 G16g44, agonist Chloroquine pH6.5 10 mM. Type of test: cell-based. Conditions: HEK293, compound at 25 μM; receptor activated to EC80 with the corresponding agonist; read-out: screening result against bitter receptor 7. In outline: as §1
For test [12], the target named is hT2R10 (Homo sapiens (Human), UniProt Q9NYW0). Kind of test: hT2R panel inhibition, transient HEK293 G16g44, agonist Strychnine 50 μM. Type of test: cell-based. Conditions: HEK293, read-out: screening result against bitter receptor 10, compound at 25 μM; receptor activated to EC80 with the corresponding agonist.
Test [13] has as its target hT2R16 (Homo sapiens (Human), UniProt Q9NYV7). Kind of test: hT2R panel inhibition, transient HEK293 G16g44, agonist Salicin 1 mM. Type of test: cell-based. Conditions: HEK293, compound at 25 μM; receptor activated to EC80 with the corresponding agonist; read-out: screening result against bitter receptor 16. In outline:
as §1

In test [14] the target is hT2R71 (Homo sapiens (Human), UniProt P59536). Kind of test: hT2R panel inhibition, transient HEK293 G16g44, agonist Picric Acid 10 μM. Type of test: cell-based. The settings on record: HEK293, compound at 25 μM; receptor activated to EC80 with the corresponding agonist; read-out: screening result against bitter receptor 71. A digest of the protocol: as §1
For test [15], the system named is hT2R55. Kind of test: hT2R panel inhibition, transient HEK293 G16g44, agonist Cinchonine 150 μM. Type of test: cell-based, human. Conditions: compound at 25 μM; receptor activated to EC80 with the corresponding agonist. In outline: as §1
The target of test [16] is hT2R9 (Homo sapiens (Human), UniProt Q9NYW1). Nature of the test: hT2R panel inhibition, transient HEK293 G16g44, agonist Ofloxacin 1 mM. It is filed as cell-based. Conditions: HEK293, compound at 25 μM; receptor activated to EC80 with the corresponding agonist; read-out: screening result against bitter receptor 9. In outline: as §1
In test [17] the target is T1, hT2R14. Nature of the test: hT2R panel inhibition, transient HEK293 G16g44, agonist Aristolochic Acid 2 μM. Type of test: cell-based. Conditions: HEK293, compound at 25 μM; receptor activated to EC80 with the corresponding agonist; read-out: screening result against bitter receptor 14. A digest of the protocol: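 Agonist challenge was at EC80, with 0.5 mM andrographolide on hT2R8 and 2 μM aristolochic acid on hT2R14. Inhibition was measured in functional assays in HEK293 cells that stably carry the promiscuous G protein G16g44 and were transiently transfected with the individual receptor.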

Test [18] deals with hT2R51 (Homo sapiens (Human), UniProt P59533). Kind of test: hT2R panel inhibition, transient HEK293 G16g44, agonist Prop 2.5 μM. Type of test: cell-based. Conditions: HEK293, compound at 25 μM; receptor activated to EC80 with the corresponding agonist; read-out: screening result against bitter receptor 51. In outline:
as §1

Broadly, the IC50 is the midpoint of a concentration-inhibition curve.

T1 sequence (Q9NYV8 whole entry): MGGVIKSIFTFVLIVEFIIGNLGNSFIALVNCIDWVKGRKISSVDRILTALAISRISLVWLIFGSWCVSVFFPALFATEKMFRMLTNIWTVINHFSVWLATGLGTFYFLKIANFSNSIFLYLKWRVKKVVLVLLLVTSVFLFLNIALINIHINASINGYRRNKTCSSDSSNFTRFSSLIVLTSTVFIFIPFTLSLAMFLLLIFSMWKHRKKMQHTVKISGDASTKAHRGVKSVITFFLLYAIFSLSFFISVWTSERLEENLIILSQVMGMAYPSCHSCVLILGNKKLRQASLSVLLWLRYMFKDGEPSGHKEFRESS
Sequence of hT2R10 (Q9NYW0 whole entry): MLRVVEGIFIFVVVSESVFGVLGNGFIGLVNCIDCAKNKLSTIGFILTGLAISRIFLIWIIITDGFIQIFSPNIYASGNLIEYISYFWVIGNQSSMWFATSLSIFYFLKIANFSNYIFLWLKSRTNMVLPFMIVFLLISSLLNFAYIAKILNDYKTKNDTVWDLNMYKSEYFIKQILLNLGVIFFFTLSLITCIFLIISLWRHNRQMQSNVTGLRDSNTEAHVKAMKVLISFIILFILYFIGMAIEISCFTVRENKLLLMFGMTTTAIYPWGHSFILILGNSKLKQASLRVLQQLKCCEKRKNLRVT
Sequence of hT2R71 (P59536 whole entry): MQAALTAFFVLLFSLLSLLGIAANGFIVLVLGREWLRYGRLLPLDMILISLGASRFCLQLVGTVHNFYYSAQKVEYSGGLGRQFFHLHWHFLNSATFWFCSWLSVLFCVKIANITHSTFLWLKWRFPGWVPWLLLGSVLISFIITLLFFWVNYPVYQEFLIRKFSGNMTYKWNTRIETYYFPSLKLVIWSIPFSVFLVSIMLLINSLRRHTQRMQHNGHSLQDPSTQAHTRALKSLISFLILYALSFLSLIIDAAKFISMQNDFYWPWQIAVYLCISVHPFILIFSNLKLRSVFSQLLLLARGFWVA
Sequence of hT2R3 (Q9NYW6 whole entry): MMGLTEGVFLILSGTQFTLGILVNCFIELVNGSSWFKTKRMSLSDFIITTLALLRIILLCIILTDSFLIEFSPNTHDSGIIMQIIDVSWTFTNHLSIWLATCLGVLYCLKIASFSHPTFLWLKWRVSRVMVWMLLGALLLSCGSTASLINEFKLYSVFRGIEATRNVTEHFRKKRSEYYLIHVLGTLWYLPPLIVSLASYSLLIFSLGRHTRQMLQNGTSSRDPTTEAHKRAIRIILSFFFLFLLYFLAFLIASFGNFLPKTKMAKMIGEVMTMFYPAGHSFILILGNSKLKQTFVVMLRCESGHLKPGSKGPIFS
Sequence of hT2R16 (Q9NYV7 whole entry): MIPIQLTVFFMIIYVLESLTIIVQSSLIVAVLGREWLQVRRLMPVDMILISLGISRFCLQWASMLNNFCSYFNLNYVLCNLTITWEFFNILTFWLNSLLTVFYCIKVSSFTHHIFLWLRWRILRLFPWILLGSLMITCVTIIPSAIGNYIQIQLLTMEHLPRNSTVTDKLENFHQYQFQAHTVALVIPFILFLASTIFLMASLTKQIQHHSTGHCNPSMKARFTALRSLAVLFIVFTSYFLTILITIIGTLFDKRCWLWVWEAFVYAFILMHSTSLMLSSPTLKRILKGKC
Sequence of hT2R7 (Q9NYW3 whole entry): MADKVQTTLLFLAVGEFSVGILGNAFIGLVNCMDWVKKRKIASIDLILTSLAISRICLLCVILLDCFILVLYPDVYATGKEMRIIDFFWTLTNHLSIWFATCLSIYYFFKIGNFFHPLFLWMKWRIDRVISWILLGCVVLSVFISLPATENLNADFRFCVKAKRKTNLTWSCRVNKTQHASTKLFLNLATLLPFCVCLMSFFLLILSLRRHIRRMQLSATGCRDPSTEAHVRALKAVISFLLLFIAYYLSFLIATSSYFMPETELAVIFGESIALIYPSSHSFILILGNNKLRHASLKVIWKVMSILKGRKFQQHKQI
Sequence of hT2R5 (Q9NYW4 whole entry): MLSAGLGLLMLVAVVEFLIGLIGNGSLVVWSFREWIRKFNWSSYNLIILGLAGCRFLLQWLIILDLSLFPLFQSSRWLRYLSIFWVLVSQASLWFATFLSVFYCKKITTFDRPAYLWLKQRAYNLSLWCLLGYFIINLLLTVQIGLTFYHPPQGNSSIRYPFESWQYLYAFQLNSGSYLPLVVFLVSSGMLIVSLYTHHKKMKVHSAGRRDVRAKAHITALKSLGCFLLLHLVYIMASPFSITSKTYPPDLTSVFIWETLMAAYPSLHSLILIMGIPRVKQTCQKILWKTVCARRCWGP
Sequence of hT2R75 (P59540 whole entry): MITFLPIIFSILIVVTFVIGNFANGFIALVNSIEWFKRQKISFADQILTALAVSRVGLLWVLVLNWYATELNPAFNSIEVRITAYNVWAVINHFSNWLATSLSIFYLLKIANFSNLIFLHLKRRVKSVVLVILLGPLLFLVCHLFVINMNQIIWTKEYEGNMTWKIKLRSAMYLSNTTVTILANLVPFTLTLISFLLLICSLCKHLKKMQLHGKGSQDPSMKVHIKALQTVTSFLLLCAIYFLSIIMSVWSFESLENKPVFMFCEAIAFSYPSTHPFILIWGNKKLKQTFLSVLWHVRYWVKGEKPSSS
Sequence of hT2R64 (P59538 whole entry): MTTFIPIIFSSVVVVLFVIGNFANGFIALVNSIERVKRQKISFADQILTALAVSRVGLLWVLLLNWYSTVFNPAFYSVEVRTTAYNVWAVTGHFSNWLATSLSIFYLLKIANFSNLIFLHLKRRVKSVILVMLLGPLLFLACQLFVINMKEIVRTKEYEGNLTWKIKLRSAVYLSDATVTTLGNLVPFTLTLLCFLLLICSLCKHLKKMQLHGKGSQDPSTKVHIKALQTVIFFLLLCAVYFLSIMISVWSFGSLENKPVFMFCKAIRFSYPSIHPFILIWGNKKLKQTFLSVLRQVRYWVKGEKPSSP
Sequence of hT2R13 (Q9NYV9 whole entry): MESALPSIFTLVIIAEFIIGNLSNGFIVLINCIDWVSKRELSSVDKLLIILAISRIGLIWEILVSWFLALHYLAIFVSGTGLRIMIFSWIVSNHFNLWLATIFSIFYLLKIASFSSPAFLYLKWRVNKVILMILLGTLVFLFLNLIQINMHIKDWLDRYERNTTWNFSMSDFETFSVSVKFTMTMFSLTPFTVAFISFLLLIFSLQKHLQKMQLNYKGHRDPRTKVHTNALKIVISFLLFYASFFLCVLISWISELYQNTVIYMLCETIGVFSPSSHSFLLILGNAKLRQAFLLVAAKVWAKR
Sequence of hT2R9 (Q9NYW1 whole entry): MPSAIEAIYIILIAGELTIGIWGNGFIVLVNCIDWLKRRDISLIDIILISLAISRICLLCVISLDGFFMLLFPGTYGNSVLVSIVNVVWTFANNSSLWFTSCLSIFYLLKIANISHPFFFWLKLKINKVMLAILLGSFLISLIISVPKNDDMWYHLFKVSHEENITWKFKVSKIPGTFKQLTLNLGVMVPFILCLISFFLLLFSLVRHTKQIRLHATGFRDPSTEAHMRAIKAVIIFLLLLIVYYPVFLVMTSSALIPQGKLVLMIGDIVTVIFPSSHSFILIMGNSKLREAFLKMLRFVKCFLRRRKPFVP
Sequence of hT2R51 (P59533 whole entry): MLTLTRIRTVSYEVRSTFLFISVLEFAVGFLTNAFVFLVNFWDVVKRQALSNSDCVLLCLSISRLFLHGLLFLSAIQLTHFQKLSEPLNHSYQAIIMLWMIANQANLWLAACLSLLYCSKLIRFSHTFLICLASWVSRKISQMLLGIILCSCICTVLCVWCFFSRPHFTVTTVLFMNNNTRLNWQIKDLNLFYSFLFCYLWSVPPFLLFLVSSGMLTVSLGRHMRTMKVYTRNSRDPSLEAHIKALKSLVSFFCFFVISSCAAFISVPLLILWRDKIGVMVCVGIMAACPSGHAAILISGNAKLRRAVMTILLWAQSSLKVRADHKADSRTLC
Sequence of hT2R61 (P59537 whole entry): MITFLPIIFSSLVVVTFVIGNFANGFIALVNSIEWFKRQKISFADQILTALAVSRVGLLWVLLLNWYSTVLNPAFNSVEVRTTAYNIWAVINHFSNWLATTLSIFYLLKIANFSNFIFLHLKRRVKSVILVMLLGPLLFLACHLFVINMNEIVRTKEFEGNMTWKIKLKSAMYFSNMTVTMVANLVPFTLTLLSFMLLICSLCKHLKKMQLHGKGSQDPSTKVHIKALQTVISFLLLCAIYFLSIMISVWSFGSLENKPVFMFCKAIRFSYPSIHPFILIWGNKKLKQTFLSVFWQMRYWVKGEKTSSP

As to `Cc1ccc(S(=O)(=O)N(Cc2ccc(F)cc2)CC2CCC(C(=O)O)CC2)cc1` (stereo not drawn) [Example 5-20, 4-((N-(4-fluorobenzyl)-4-methylphenylsulfonamido)methyl)-cyclohexanecarboxylic acid], the inhibition at 25 µM is greater than 80% in [1]; 20 to 40% in [2]; 20 to 40% in [5]; greater than 80% in test [6]; 40 to 60% in test [9]; 60 to 80% in test [10]. Further, the inhibition at 25 µM in test [11] is 20 to 40%; in test [12], 40 to 60%; in test [13], 40 to 60%; in [14], 40 to 60%; in [16] it was 20 to 40%; in test [17], greater than 80%. The “screening result against bitter receptor 44” value in test [3] is listed as “+++ (60% to 80% inhibition = +++)”. For the same molecule, the “screening result against bitter receptor 63” value in test [4] is reported as “++ (40% to 60% inhibition = ++)”. Besides, the “screening result against bitter receptor 65” value in test [7] was “+ (20% to 40% inhibition = +)”. Further, in [8], the IC50 was determined as 0.083 µM. Also, the “screening result against bitter receptor 55” value in [15] was “++++ (80% or greater inhibition = ++++)”.
Take `COc1ccc(CN(Cc2ccc(OC)cc2)S(=O)(=O)c2ccc(C(=O)O)cc2)cc1` [Example 5-30, 4-(N,N-bis(4-methoxybenzyl)sulfamoyl)benzoic acid]: the inhibition at 25 µM in [1] is 40 to 60%; in [2], 20 to 40%; in test [18], 40 to 60%; in test [5] it was 20 to 40%; in test [9], 20 to 40%; in [10], greater than 80%. In addition, the inhibition at 25 µM in test [11] was 20 to 40%; in test [12], 40 to 60%; in test [13], 20 to 40%; in test [14], 60 to 80%; in test [16] it was 20 to 40%; in test [17] it was greater than 80%. In test [3], the “screening result against bitter receptor 44” value is recorded as “+++ (60% to 80% inhibition = +++)”. In addition, in [4], the “screening result against bitter receptor 63” value is reported as “++++ (80% or greater inhibition = ++++)”. Besides, the IC50 in test [8] came out at 4.14 µM. In test [15], the “screening result against bitter receptor 55” value was “++++ (80% or greater inhibition = ++++)”.
